Data reported in ChEMBL document CHEMBL5291721, “A preclinical secondary pharmacology resource illuminates target-adverse drug reaction associations of marketed drugs” (Nat Commun, 2023).

How the values were obtained:
[1] = target: T1, Muscarinic acetylcholine receptor M1 (Homo sapiens, UniProt P11229); type: functional
T1 sequence (P11229 whole entry): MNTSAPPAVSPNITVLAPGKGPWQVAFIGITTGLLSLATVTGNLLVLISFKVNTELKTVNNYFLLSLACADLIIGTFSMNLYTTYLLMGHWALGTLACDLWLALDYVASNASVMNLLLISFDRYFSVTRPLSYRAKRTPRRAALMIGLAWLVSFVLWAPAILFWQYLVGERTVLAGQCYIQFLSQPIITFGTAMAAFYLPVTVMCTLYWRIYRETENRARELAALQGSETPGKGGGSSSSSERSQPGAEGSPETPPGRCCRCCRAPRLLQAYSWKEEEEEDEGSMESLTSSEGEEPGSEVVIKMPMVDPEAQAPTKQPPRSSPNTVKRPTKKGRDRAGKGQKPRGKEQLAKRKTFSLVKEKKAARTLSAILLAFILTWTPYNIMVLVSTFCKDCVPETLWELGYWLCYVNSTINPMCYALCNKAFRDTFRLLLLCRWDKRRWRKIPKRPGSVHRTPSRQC

[2] = target: T2, Gamma-aminobutyric acid receptor subunit alpha-1/alpha-2/beta-2/gamma-2 (Homo sapiens, UniProt P14867+P18507+P47869+P47870); type: functional, cell-based
[3] = target: T3, 5-hydroxytryptamine receptor 2A (Homo sapiens, UniProt P28223); type: functional, cell-based
[4] = target: T3, 5-hydroxytryptamine receptor 2A; type: functional, cell-based; remark: listed apart in the source
[5] = target: Muscarinic acetylcholine receptor M3 (Homo sapiens, UniProt P20309)
[6] = target: Histamine H1 receptor (Homo sapiens, UniProt P35367)
[7] = target: T2, Gamma-aminobutyric acid receptor subunit alpha-1/alpha-2/beta-2/gamma-2; type: functional, cell-based; remark: listed apart in the source
[8] = target: T2, Gamma-aminobutyric acid receptor subunit alpha-1/alpha-2/beta-2/gamma-2; type: protein-complex assay
[9] = target: Melanocortin receptor 4 (Homo sapiens, UniProt P32245)
[10] = target: Cannabinoid receptor 1 (Homo sapiens, UniProt P21554)
Also: assay procedure not described here.

Chain of Histamine H1 receptor (P35367 whole entry): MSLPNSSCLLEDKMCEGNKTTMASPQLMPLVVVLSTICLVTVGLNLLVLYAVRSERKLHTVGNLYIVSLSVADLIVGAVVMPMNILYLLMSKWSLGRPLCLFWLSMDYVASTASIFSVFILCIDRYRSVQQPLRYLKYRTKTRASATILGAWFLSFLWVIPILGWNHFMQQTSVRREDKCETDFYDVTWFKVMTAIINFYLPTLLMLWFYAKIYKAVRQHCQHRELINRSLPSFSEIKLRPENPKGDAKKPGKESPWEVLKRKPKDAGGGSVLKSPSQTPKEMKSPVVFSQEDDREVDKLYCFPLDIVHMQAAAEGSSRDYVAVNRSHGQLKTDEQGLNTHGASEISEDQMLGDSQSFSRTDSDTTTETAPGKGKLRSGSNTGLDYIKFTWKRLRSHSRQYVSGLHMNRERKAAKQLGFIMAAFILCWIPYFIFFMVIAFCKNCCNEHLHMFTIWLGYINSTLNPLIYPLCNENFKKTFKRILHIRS
T2 sequence (P14867 whole entry): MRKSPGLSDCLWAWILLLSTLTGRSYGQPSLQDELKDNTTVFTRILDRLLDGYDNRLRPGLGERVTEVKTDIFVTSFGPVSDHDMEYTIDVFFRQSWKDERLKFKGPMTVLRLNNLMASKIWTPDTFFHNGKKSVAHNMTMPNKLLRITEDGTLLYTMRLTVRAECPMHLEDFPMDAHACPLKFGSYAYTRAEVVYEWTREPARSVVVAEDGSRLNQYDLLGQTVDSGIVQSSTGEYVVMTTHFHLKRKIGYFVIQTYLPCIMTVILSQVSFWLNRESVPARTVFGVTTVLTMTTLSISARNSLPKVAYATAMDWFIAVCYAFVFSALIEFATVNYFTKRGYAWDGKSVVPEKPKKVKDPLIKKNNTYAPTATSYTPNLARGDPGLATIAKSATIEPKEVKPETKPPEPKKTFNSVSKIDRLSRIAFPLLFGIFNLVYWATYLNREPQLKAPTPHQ
T2 sequence (P47870 whole entry): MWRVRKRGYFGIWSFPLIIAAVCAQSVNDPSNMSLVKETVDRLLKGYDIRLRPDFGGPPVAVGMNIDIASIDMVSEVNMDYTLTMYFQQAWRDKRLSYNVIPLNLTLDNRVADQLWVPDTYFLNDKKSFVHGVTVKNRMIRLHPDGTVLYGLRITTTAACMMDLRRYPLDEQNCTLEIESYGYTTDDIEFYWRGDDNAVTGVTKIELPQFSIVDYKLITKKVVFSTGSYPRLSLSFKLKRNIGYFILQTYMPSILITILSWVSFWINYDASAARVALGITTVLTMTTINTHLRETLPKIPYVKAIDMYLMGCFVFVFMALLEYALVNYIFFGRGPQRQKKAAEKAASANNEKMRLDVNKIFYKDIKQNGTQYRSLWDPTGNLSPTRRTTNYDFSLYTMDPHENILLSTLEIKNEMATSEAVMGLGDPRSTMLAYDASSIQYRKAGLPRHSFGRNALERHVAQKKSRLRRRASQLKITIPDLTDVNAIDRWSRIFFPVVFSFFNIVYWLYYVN
T2 sequence (P18507 whole entry): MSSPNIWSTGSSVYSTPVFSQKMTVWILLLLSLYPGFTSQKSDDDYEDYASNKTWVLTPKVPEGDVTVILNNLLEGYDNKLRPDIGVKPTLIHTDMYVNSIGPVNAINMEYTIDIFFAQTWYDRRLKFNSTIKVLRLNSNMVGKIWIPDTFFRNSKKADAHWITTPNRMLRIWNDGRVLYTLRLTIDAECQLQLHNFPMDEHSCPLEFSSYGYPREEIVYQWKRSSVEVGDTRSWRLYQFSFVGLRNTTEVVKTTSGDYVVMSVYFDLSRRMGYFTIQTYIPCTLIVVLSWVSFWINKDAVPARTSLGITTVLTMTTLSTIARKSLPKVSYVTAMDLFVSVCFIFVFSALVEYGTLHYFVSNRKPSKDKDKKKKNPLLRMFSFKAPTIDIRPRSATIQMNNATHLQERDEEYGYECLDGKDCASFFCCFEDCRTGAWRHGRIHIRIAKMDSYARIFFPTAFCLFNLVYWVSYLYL
T2 sequence (P47869 whole entry): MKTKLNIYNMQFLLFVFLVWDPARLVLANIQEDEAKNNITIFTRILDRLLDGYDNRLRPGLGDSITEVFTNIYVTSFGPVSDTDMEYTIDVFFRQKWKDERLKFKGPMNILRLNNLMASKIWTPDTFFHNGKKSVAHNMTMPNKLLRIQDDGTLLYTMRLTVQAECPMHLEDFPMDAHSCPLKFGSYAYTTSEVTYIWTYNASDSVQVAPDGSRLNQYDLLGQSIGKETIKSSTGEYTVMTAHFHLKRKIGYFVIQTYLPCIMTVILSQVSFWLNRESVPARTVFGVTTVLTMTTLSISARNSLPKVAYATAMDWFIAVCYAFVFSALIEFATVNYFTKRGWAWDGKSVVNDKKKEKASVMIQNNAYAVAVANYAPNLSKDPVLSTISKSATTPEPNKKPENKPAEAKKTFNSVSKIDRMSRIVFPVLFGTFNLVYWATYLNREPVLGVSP
T3 sequence (P28223 whole entry): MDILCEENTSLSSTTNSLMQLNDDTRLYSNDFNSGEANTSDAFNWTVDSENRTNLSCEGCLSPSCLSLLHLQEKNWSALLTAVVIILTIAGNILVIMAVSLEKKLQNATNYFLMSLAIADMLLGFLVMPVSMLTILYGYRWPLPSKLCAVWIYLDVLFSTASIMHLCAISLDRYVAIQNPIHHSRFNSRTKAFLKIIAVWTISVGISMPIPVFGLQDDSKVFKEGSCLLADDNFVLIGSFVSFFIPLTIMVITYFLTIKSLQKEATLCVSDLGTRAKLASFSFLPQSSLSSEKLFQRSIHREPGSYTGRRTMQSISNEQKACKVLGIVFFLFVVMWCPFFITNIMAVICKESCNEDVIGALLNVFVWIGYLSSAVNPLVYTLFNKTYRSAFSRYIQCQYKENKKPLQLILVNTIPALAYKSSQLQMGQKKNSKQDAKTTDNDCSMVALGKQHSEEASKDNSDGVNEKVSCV
Chain of Cannabinoid receptor 1 (P21554 whole entry): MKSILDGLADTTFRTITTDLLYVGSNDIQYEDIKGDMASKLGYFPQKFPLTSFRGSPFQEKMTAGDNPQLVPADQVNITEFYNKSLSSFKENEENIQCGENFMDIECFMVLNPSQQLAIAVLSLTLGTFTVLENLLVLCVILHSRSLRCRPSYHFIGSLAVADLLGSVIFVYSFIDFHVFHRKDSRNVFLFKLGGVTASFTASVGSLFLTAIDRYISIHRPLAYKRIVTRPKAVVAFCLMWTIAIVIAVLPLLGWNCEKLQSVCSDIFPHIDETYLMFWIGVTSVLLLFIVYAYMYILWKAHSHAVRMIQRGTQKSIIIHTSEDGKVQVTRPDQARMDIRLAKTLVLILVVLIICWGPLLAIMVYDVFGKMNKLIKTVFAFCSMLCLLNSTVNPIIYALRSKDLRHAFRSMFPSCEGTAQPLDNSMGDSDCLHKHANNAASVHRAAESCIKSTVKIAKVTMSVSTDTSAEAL
Chain of Muscarinic acetylcholine receptor M3 (P20309 whole entry): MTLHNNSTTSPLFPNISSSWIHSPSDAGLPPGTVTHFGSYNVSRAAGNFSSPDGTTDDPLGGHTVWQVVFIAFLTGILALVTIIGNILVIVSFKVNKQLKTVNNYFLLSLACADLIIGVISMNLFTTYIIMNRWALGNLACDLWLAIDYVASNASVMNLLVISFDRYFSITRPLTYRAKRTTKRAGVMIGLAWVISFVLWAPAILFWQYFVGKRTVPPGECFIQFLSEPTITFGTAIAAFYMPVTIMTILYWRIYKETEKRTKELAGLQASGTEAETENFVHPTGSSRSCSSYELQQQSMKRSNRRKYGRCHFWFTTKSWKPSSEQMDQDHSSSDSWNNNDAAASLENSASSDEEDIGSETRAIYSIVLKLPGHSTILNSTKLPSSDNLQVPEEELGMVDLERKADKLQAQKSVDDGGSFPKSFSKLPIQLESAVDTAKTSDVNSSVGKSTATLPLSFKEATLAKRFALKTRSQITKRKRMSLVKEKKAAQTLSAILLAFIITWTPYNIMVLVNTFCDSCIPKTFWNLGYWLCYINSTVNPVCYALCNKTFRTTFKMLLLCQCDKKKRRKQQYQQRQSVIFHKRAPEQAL
Chain of Melanocortin receptor 4 (P32245 whole entry): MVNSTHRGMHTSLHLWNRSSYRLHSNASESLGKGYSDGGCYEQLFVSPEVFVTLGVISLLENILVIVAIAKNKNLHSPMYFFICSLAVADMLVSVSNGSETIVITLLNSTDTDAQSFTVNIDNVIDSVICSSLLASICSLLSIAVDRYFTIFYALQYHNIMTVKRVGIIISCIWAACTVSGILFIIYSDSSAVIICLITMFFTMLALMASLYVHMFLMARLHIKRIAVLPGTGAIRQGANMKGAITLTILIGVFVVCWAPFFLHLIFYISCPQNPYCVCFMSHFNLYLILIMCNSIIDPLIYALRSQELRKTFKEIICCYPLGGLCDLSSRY

Row | Compound | AC50 [1] [µM] | AC50 [3] [µM] | AC50 [4] [µM] | AC50 [5] [µM] | AC50 [6] [µM] | AC50 [7] [µM] | AC50 [8] [µM] | further results
1 | CCOc1cc([C@@H](CS(C)(=O)=O)N2C(=O)c3cccc(NC(C)=O)c3C2=O)ccc1OC | > 30 | > 30 | > 30 | > 30 | > 30 | > 30 | – | AC50 [2]: > 30 µM
2 | CC(=O)NCCCCCC(=O)O [ACEXAMIC ACID] | – | – | – | – | – | – | > 30 | –
3 | CC(=O)Nc1ccc(CC(=O)O)cc1 [ACTARIT] | > 30 | > 30 | > 30 | > 30 | > 30 | – | – | –
4 | C=C(C)CNc1ccc(C(C)C(=O)O)cc1 (centres undefined) [ALMINOPROFEN] | – | – | – | – | – | – | > 30 | –
5 | C[C@H]1CN(C[C@H](Cc2ccccc2)C(=O)NCC(=O)O)CC[C@@]1(C)c1cccc(O)c1 [ALVIMOPAN] | – | – | – | – | – | – | > 30 | –
6 | O=C(O)c1ccccc1 [BENZOIC ACID] | – | – | – | – | – | – | > 30 | –
7 | CC1(C)S[C@@H]2[C@H](NC(=O)C(C(=O)O)c3ccccc3)C(=O)N2[C@H]1C(=O)O (some centres undefined) [CARBENICILLIN] | > 30 | > 30 | > 30 | > 30 | > 30 | > 30 | – | AC50 [2]: > 30 µM
8 | Cc1nnc(SCC2=C(C(=O)O)N3C(=O)[C@@H](NC(=O)Cn4cnnn4)[C@H]3SC2)s1 [CEFAZOLIN] | > 300 | > 30 | > 300 | > 300 | > 300 | > 2400 | – | AC50 [2]: > 2400 µM
9 | CC=CC1=C(C(=O)O)N2C(=O)[C@@H](NC(=O)[C@H](N)c3ccc(O)cc3)[C@H]2SC1 [CEFPROZIL] | > 30 | > 30 | > 30 | > 30 | > 30 | – | – | AC50 [9]: > 30 µM; AC50 [10]: > 30 µM
10 | CC(C)(O/N=C(\C(=O)N[C@@H]1C(=O)N2C(C(=O)[O-])=C(C[n+]3ccccc3)CS[C@H]12)c1csc(N)n1)C(=O)O [CEFTAZIDIME] | > 300 | > 30 | > 300 | > 300 | > 300 | > 2400 | – | AC50 [2]: > 2400 µM
11 | CC(C)NC(=N)NC(=N)Nc1ccc(Cl)c(Cl)c1 [CHLORPROGUANIL] | > 30 | 3.6 | > 30 | > 30 | > 30 | > 30 | – | AC50 [2]: > 30 µM
12 | Cc1cc(C2CCCCC2)n(O)c(=O)c1 [CICLOPIROX] | – | – | – | – | – | – | > 30 | –
13 | C[N+](C)(C)CCOP(=O)(O)OP(=O)([O-])OC[C@H]1O[C@@H](n2ccc(N)nc2=O)[C@H](O)[C@@H]1O [CITICOLINE] | > 10 | > 30 | > 30 | > 30 | > 30 | > 30 | – | AC50 [2]: > 30 µM
14 | Clc1ccc(Cn2c(CN3CCCC3)nc3ccccc32)cc1 [CLEMIZOLE] | > 30 | 15 | > 30 | > 30 | 0.0034 | > 30 | – | AC50 [2]: > 30 µM
15 | CCC(=O)O[C@]1(C(=O)CCl)[C@@H](C)C[C@H]2[C@@H]3CCC4=CC(=O)C=C[C@]4(C)[C@@]3(F)[C@@H](O)C[C@@]21C [CLOBETASOL PROPIONATE] | – | – | – | – | – | > 30 | – | –
16 | C[C@H]1O[C@@H](O[C@H]2CC[C@@]3(C)[C@H](CC[C@@H]4[C@@H]3C[C@@H](O)[C@]3(C)[C@@H](C5=CC(=O)OC5)CC[C@]43O)C2)C[C@H](O)[C@@H]1O[C@H]1C[C@H](O)[C@H](O[C@H]2C[C@H](O)[C@H](O[C@@H]3O[C@H](CO)[C@@H](O)[C@H](O)[C@H]3O)[C@@H](C)O2)[C@@H](C)O1 [DESLANOSIDE] | – | – | – | – | – | – | > 30 | –
17 | CC(C)Cc1ccc([C@H](C)C(=O)O)cc1 [DEXIBUPROFEN] | – | – | – | – | – | > 30 | – | AC50 [2]: > 30 µM
18 | CNC[C@H](O)c1ccc(O)c(O)c1 [EPINEPHRINE] | – | – | – | – | – | > 30 | – | –
19 | CC(C(=O)O)c1cccc(Oc2ccccc2)c1 (centres undefined) [FENOPROFEN] | – | – | – | – | – | – | > 30 | –
20 | Cc1onc(-c2c(F)cccc2Cl)c1C(=O)N[C@@H]1C(=O)N2[C@@H]1SC(C)(C)[C@@H]2C(=O)O [FLOXACILLIN] | > 30 | > 30 | > 30 | > 30 | > 30 | > 30 | – | AC50 [2]: > 30 µM

Row | Compound | AC50 [1] [µM] | AC50 [3] [µM] | AC50 [4] [µM] | AC50 [5] [µM] | AC50 [6] [µM] | AC50 [7] [µM] | AC50 [8] [µM] | further results
21 | CC1(C)O[C@@H]2C[C@H]3[C@@H]4C[C@H](F)C5=CC(=O)C=C[C@]5(C)[C@@]4(F)[C@@H](O)C[C@]3(C)[C@]2(C(=O)CO)O1 [FLUOCINOLONE ACETONIDE] | – | – | – | – | – | – | > 30 | –
22 | N=C(N)N/N=C/c1c(Cl)cccc1Cl [GUANABENZ] | – | – | – | – | – | – | > 30 | –
23 | CCCCCCCN(CC)CCCC(O)c1ccc(NS(C)(=O)=O)cc1 (centres undefined) [IBUTILIDE] | > 30 | 25 | > 30 | 21 | > 30 | – | – | AC50 [10]: > 30 µM
24 | CC(C)[C@@H]1CC[C@@H](C)C[C@H]1O [LEVOMENTHOL] | – | – | – | – | – | – | > 30 | –
25 | C[N+]1(C)CCCC(OC(=O)C(O)(c2ccccc2)c2ccccc2)C1 (centres undefined) [MEPENZOLATE] | – | – | – | – | – | – | > 30 | –
26 | CN(C)c1ccc(O)c2c1C[C@H]1C[C@H]3[C@H](N(C)C)C(O)=C(C(N)=O)C(=O)[C@@]3(O)C(O)=C1C2=O [MINOCYCLINE] | – | – | – | – | – | – | > 30 | –
27 | CCNC(=O)/C=C(C)/C=C/C=C(C)/C=C/c1c(C)cc(OC)c(C)c1C [MOTRETINIDE] | – | – | – | – | – | – | > 30 | –
28 | CNC(=C[N+](=O)[O-])NCCSCc1csc(CN(C)C)n1 [NIZATIDINE] | – | – | – | – | – | – | – | AC50 [9]: > 10 µM; AC50 [10]: > 10 µM
29 | CN1Cc2c(N)cccc2C(c2ccccc2)C1 (centres undefined) [NOMIFENSINE] | > 30 | 15 | > 30 | > 30 | 30 | > 30 | – | AC50 [2]: > 30 µM
30 | COc1ccc2[nH]c([S+]([O-])Cc3ncc(C)c(OC)c3C)nc2c1 (centres undefined) [OMEPRAZOLE] | – | – | – | – | – | – | > 30 | –
31 | CCCc1cc(=O)[nH]c(=S)[nH]1 [PROPYLTHIOURACIL] | – | – | – | – | – | – | – | AC50 [9]: > 10 µM; AC50 [10]: > 10 µM
32 | Cn1cc(C(=O)[C@@H]2CCc3nc[nH]c3C2)c2ccccc21 [RAMOSETRON] | > 30 | > 30 | > 30 | > 30 | > 30 | – | – | –
33 | C[N+](C)(C)CCOC(=O)CCC(=O)OCC[N+](C)(C)C [SUXAMETHONIUM] | – | – | – | – | – | – | > 30 | –
34 | S=P(N1CC1)(N1CC1)N1CC1 [THIOTEPA] | – | – | – | 9.3 | – | > 30 | – | AC50 [2]: > 30 µM
35 | Cc1ccsc1C(=CCCN1CCC[C@@H](C(=O)O)C1)c1sccc1C [TIAGABINE] | – | – | – | – | – | – | > 30 | –
36 | Cc1ccc(C(=O)c2ccc(CC(=O)O)n2C)cc1 [TOLMETIN] | – | – | – | – | – | – | > 30 | –
37 | Cc1ccccc1C(=O)Nc1ccc(C(=O)N2CCCC(O)c3cc(Cl)ccc32)c(C)c1 (centres undefined) [TOLVAPTAN] | – | – | – | – | – | – | > 30 | –
38 | C[C@]12C=CC(=O)C=C1CC[C@H]1[C@@H]3C[C@@H](O)[C@](O)(C(=O)CO)[C@@]3(C)C[C@H](O)[C@@]12F [TRIAMCINOLONE] | – | – | – | – | – | – | > 30 | –
39 | CCC1=C[C@@H]2CN(C1)Cc1c([nH]c3ccccc13)[C@@](C(=O)OC)(c1cc3c(cc1OC)N(C)[C@H]1[C@@](O)(C(=O)OC)[C@H](OC(C)=O)[C@]4(CC)C=CCN5CC[C@]31[C@@H]54)C2 [VINORELBINE] | – | – | – | – | – | – | > 30 | –
40 | COc1cc(C(=O)NS(=O)(=O)c2ccccc2C)ccc1Cc1cn(C)c2ccc(NC(=O)OC3CCCC3)cc12 [ZAFIRLUKAST] | – | – | – | – | – | – | – | AC50 [9]: > 10 µM; AC50 [10]: > 10 µM
